Experimental data taken from patent publication US3998963A, “Tertiary butyl substituted carbamoyl oxime pesticides” (priority 1975, dated 1976).
In brackets after ≈: the same amount, converted by molar mass.

Legend:
Format in all cases: in vivo
[1] = tested on: bean aphid (Aphis fabae Scop.); assay: Bean Aphid Foliage Spray Test; conditions: foliar, 24 hour holding period, read-out: Insect LD50, Aphid
Description: (§1) Suspensions of the test compouns were prepared by dissolving one gram of compound in 50 milliliters of acetone in which had been dissolved 0.1 gram (10 percent of the weight of compound) of an alkylphenoxy polyethoxyethanol surfactant, as an emulsifying or dispersing agent. The resulting solution was mixed into 150 milliliters of water to give roughly 200 milliliters of a suspension containing the compound in finely divided form. The thus-prepared stock suspension contained 0.5 percent by weight of compound. The test concentrations in parts per million by weight employed in the tests described hereinbelow were obtained by appropriate dilutions of the stock suspension with water. The test procedures were as follows:
Bean Aphid Foliage Spray Test
Adults and nymphal stages of the bean aphid (Aphis fabae Scop.) reared on potted dwarf nasturtium plants at 65°-70° F. and 50-70 per cent relative humidity, constituted the test insects. For testing purposes, the number of aphids per pot was standardized to 100-150 by trimming plants containing excess aphids.
The test compounds were formulated by diluting the stock suspension with water to give a suspension containing 500 parts of test compound per million parts of final formulation.
The potted plants (one pot per compound tested) infested with 100-150 aphids, were placed on a revolving turntable and sprayed with 100 -110 milliliters of test compound formulation by use of a DeVilbiss spray gun set at 40 psig. air pressure. This application, which lasted 25 seconds, was sufficient to wet the plants to run-off. As a control, 100-110 milliliters of a water-acetone-emulsifier solution containing no test compound were also sprayed on infested plants. After spraying, the pots were placed on their sides on a sheet of white standard mimeograph paper which had peen previously ruled to facilitate counting. Temperature and humidity in the test room during the 24 hour holding period were 65°-70° F. and 50-70 per cent, respectively. Aphids which fell onto the paper and were unable to remain standing after being uprighted were considered dead. Aphids remaining on the plants were observed closely for movement and those which were unable to move the length of the body upon stimulation by prodding were considered dead. Per cent mortality was recorded for various concentration levels.

[2] = tested on: bean, corn, tomato or cotton; assay: Phytotoxicity Test, crop plants overall; conditions: text statement
Description: (§2) Each of the new compounds were evaluated in comparison with known similar prior art compounds to determine their comparative pesticidal activity against mites and certain insects, including an aphid, caterpillar, a beetle and a fly. The new compounds were also tested for phytotoxicity on important economic crops including bean, corn, tomato and cotton. The new compounds were further evaluated for mammalian toxicity.
as §1
(§3) Experiments were also conducted to determine the phytotoxicity of representative compositions with respect to healthy fresh plants. Solutions of the compounds were prepared as described above to provide a concentration of 2500 parts per million of the test compound. The test plants were sprayed in accordance with the procedure described above for the Mite Foliage Spray Test so as to deliver approximately 100 milliliters of test solution to the leaves of each plant tested. The sprayed plants and controls were set aside for approximately one hour to allow the foliage to dry and were then placed in the greenhouse. After ten days the plants were visually inspected to determine the extent of foliage injury. A rating of 1 indicates no perceptible injury; 5 indicates the plant was dead and ratings of 2, 3 and 4 indicate intermediate degrees of injury based upon the number and extent to which leaves were injured.

[3] = tested on: Mexican bean beetle (Epilachna varivestis, Muls.); assay: Mexican Bean Beetle Leaf Spray Test; conditions: 72 h, 3 days, read-out: Insect LD50, Beetle
Description: as §1
Mexican Bean Beetle Leaf Spray Test
Fourth instar lavae of the Mexican bean beetle (Epilachna varivestis, Muls.), reared on Tendergreen bean plants at a temperature of 80°±5° F. and 50±5 per cent relative humidity, were the test insects.
The test compounds were formulated by diluting the stock suspension with water to give a suspension containing 500 parts of test compound per million parts of final formulation. Potted Tendergreen bean plants of standard height and age were placed on a revolving turntable and sprayed with 100-110 milliliters of test comound formulation by use of a DeVilbiss spray gun set at 10 psig air pressure. This application, which lasted 25 seconds, was sufficient to wet plants to run-off. As a control, 100-110 milliliters of a water-acetone-emulsifier solution containing no test compound were also sprayed on infested plants. When dry, the paired leaves were separated and each was placed in a 9 centimeter Petri dish lined with moistened filter paper. Five randomly selected larvae were introduced into each dish, and the dishes were closed. The closed dishes were labeled and held at a temperature of 80°±5° F, for 3 days. Although the larvae could easily consume the leaf within 24 to 48 hours, no more food was added. Larvae which were unable to move the length of the body, even upon stimulation, were considered dead.

corn = assay: Phytotoxicity Test, corn; conditions: 2500 parts per million; ten days
Description: as §1
as §3, with “After ten days the plants were visually inspected to determine the extent of foliage injury. A rating of 1 indicates no perceptible injury; 5 indicates the plant was dead and ratings of 2, 3 and 4 indicate intermediate degrees of injury based upon the number and extent to which leaves were injured.” left out

cotton = assay: Phytotoxicity Test, cotton; conditions: for Phytotoxicity, Cotton: 2500 parts per million, ten days; for phytotoxicity to cotton (in words): text statement
Description: as §1, §3

[4] = tested on: houseflies (Musca domestica, L.); assay: Fly Immersion Test; conditions: for LC50: Musca domestica, immersion (contact), 24 hours, read-out: Imm LD50, Housefly; for contact vs stomach poison, house fly (in words): immersion vs bait; for (Imm/Bait), Housefly: ratio immersion/bait LD50
Description: as §1
The test organisms used were 4 to 6 day old adult houseflies (Musca domestica, L.) reared under controlled conditions of 80° + 5° F. and 50 + 5 percent relative humidity. The adult flies were immobilized by anesthetizing with CO2. Twenty-five immobilized individuals (males and females) were then used for the test of each test compound.
Twenty-five randomly selected adult flies were thoroughly wetted in a formulated mixture of the test chemical (50 ml) by pouring the insects and formulation from one beaker to another six times. Excess liquid was removed by transferring the insects into a standard food strainer (5-inch diameter) which was then blotted with a paper towel. The treated flies were transferred to clean food strainer which was inverted over a paper cup containing a wad of cotton saturated with a 10 percent aqueous sugar solution provided as food for surviving insects. An equivalent amount of a water solution containing acetone and emulsifier in the same concentrations as the insecticidal mixture but without the candidate insecticide was applied to other flies in the same manner. These insects serve as controls for the experiment.
The surviving caged flies were allowed to feed on the sugar water for a period of 24 hours. Room temperature and humidity are 80° + 5° F. and 50 + 5 percent relative humidity, respectively. At the end of the holding period flies which show no sign of movement upon stimulation were considered dead.
(§4) In Table 1 are presented insect and rat toxicity data (bait tests) on a comparative basis of the compounds described above. […] Rat toxicity is also more meaningfully compared on the basis of molar weight LD50 values. The relative efficacy of the parent compounds as compared to the previously known derivatives and as compared to the new compounds of this invention is also shown in Table 1. The ratio of efficacy as contact poisons (immersion/bait) of the compounds tested against Armyworm and House Fly is presented in Table 2 along with the results of the phytotoxicity tests of the compounds on bean, corn, tomato and cotton.

bean = assay: Phytotoxicity Test, bean; conditions: 2500 parts per million; ten days
Description: as §1, §3

tomato = assay: Phytotoxicity Test, tomato; conditions: 2500 parts per million; ten days
Description: as §1
as §3, with “After ten days the plants were visually inspected to determine the extent of foliage injury. A rating of 1 indicates no perceptible injury; 5 indicates the plant was dead and ratings of 2, 3 and 4 indicate intermediate degrees of injury based upon the number and extent to which leaves were injured.” left out

insects = assay: Insect toxicity, overall; conditions: text statement
Description: as §2, §1, §4

Compound: CNC(=O)ON=C(C)SC(C)C [Compound 2]
- LC50 [1]: 25 µg/mL (≈ 131 µM)
- phytotoxicity (in words) [2]: phytotoxic to one or more of the crop plants
- LC50 [3]: 30 µg/mL (≈ 158 µM)
- Phytotoxicity, Corn (corn): Bu 2
- Phytotoxicity, Cotton (cotton): Bu 2
- LC50 [4]: 66 µg/mL (≈ 347 µM)
- contact vs stomach poison, house fly (in words) [4]: significantly more toxic as stomach poisons than as contact poisons
- (Imm/Bait), Housefly [4]: 6
- Phytotoxicity, Bean (bean): Bu 2

Compound: CNC(=O)ON=C(C)SC [Compound 1, O-(methylcarbamoyl) S-methyl acetothiolhydroximate]
- LC50 [1]: 4 µg/mL (≈ 24.7 µM)
- phytotoxicity (in words) [2]: phytotoxic to one or more of the crop plants
- LC50 [3]: 70 µg/mL (≈ 432 µM)
- Phytotoxicity, Cotton (cotton): *Bu 3
- phytotoxicity to cotton (in words) (cotton): so great as to significantly curtail the use of this otherwise highly desirable pesticide on cotton
- LC50 [4]: 32 µg/mL (≈ 197 µM)
- contact vs stomach poison, house fly (in words) [4]: significantly more toxic as stomach poisons than as contact poisons
- (Imm/Bait), Housefly [4]: 8
- Phytotoxicity, Bean (bean): BuCl 2

Compound: CSC(C)=NOC(=O)N(C)Sc1ccc(C)cc1 [Compound 6]
- LC50 [1]: 5 µg/mL (≈ 17.6 µM)
- LC50 [3]: 15 µg/mL (≈ 52.7 µM)
- Phytotoxicity, Cotton (cotton): Bu 2
- LC50 [4]: 14 µg/mL (≈ 49.2 µM)
- (Imm/Bait), Housefly [4]: 7

Compound: CC(=NOC(=O)N(C)Sc1ccc(C)cc1)SC(C)C [Compound 7]
- LC50 [1]: 5 µg/mL (≈ 16 µM)
- LC50 [3]: 15 µg/mL (≈ 48 µM)
- LC50 [4]: 25 µg/mL (≈ 80 µM)
- (Imm/Bait), Housefly [4]: 0.5

Compound: CCSC(C)=NOC(=O)NC [Compound 3]
- LC50 [1]: 12 µg/mL (≈ 68.1 µM)
- LC50 [3]: 38 µg/mL (≈ 216 µM)
- Phytotoxicity, Tomato (tomato): 2
- Phytotoxicity, Cotton (cotton): 2
- Phytotoxicity, Bean (bean): 2

Compound: CSC(C)=NOC(=O)N(C)Sc1ccc(C(C)(C)C)cc1 [Compound 8, O-[N-Methyl-N-[4-(t-butylphenyl)sulfenyl]carbamoyl] S-Methyl Acetothiolhydroximate]
- LC50 [1]: 2.5 µg/mL (≈ 7.66 µM)
- insect toxicity / pesticidal activity (in words) (insects): dramatic improvement in toxicity against all insects tested with the exception of house fly
- insect toxicity / pesticidal activity (in words) (insects; listed as O-[ N-methyl-N-[4-(t-butylphenyl)sulfenyl] carbamoyl] S-methyl acetothiolhydroxi): exceptionally high insecticidal activity against aphid, armyworm and bean beetle
- phytotoxicity (in words) [2]: very low phytotoxicity
- LC50 [3]: 20 µg/mL (≈ 61.3 µM)
- Phytotoxicity, Cotton (cotton): Bu 2
- phytotoxicity to cotton (in words) (cotton): moderate leaf burn injury
- LC50 [4]: 14 µg/mL (≈ 42.9 µM)
- contact vs stomach poison, house fly (in words) [4]: outstanding contact poison
- (Imm/Bait), Housefly [4]: 0.8

Compound: CSC(C)=NOC(=O)N(C)Sc1ccc(Cl)cc1 [Compound 4]
- LC50 [1]: 2 µg/mL (≈ 6.56 µM)
- LC50 [3]: 70 µg/mL (≈ 230 µM)
- Phytotoxicity, Cotton (cotton): *Bu 3
- LC50 [4]: 24 µg/mL (≈ 78.7 µM)
- (Imm/Bait), Housefly [4]: 3
- Phytotoxicity, Bean (bean): Trif. 3

Compound: CC(=NOC(=O)N(C)Sc1ccc(Cl)cc1)SC(C)C [Compound 5]
- LC50 [1]: 3 µg/mL (≈ 9.01 µM)
- LC50 [3]: 50 µg/mL (≈ 150 µM)
- Phytotoxicity, Cotton (cotton): Bu 2
- LC50 [4]: 25 µg/mL (≈ 75.1 µM)
- (Imm/Bait), Housefly [4]: 0.5
- Phytotoxicity, Bean (bean): Trif. 3

Compound: CC(=NOC(=O)N(C)Sc1ccc(C(C)(C)C)cc1)SC(C)C [Compound 9, O-[N-Methyl-N-[4-(t-Butylphenyl)sulfenyl]carbamoyl] S-Isopropyl Thiolacetohydroximate]
- LC50 [1]: 9 µg/mL (≈ 25.4 µM)
- contact / stomach poison properties for insects (in words) (insects): dramatically superior contact poison characteristics
- insect toxicity / pesticidal activity (in words) (insects): dramatic improvement in activity against all insect species, again with the exception of house fly
- contact / stomach poison properties for insects (in words) (insects; listed as O-[ N-methyl-N-[4-(t-butylphenyl) sulfenyl] carbamoyl] S-isopropyl thiolacetohyd): outstanding stomach poison against insects and also appears to be the most powerful contact poison for insects among all of the compositions tested
- phytotoxicity (in words) [2]: extremely low phytotoxicity
- LC50 [3]: 30 µg/mL (≈ 84.6 µM)
- LC50 [4]: 10 µg/mL (≈ 28.2 µM)
- (Imm/Bait), Housefly [4]: 0.2
